Among the data in patent publication US11613531B2, “Inhibitors of RHO associated coiled-coil containing protein kinase” (Kadmon Corporation, LLC, priority 2017, dated 2023) are inhibition and IC50 values, retold here.

One experiment concerns ppMlc (T18/S19) levels in A7R5 cells. The experiment in a line: A7R5 in-cell ELISA (pMLC). The experiment is classed as cell-based, Rat. The conditions noted are these: Rattus norvegicus, A7R5, A7R5 cells, 1 μM compound; read-out: pMLC % inh A7R5 @ [conc]. On the procedure:
Determination of Compounds ROCK Inhibitory Activity in A7R5Cells.
Rat aortic smooth muscle cell line, A7R5, cells were seeded with density of 5,000 cells/well in a 96-well plates for 24 hours and subsequently treated for 90 min with testing compounds. Cells were then fixed and processed according to the In-Cell ELISA Colorimetric Detection Kit manual (Thermo Scientific).
An A7R5 in-cell Elisa assay was performed. A7R5 cells were treated with 9 points 2 fold serial dilution of compounds and ppMlc (T18/S19) levels were determined to calculate cellular IC50 values of the compounds. Compounds of the invention gave in cell IC50s under 100 nM.
In vitro activities for the compounds were measured with Z′-lyte kinase kit (ThermoFisher Scientific). The percent inhibition rate was calculated by normalizing the kinase activity value obtained with 1 μM compound treatment against DMSO control value and then applied to the formula, [1-(compound/DMSO)]×100%. IC50s were calculated using the nonlinear regression curve fit function of the GraphPad Prism software with kinase activities data measured with 9 points 2-fold serial dilution of compounds treatment. In cell pMLC IC50s were calculated with data obtained from A7R5 cell experiments. A7R5 cells were treated with 9 points 2-fold serial dilution of compounds and ppMlc (T18/S19) levels were determined to calculate cellular IC50 values of the compounds using the nonlinear regression curve fit function of the GraphPad Prism software. NIH3T3 cells stably expressing ACTA2-promoter-driven-luciferase were applied to measure ROCK compounds functional IC50s in cells. Cells were plated in 96 well plates to confluence and treated with 9 points serial dilution of compounds in combination with TGFβ1 for 24 hr. Luciferase activities were measured and compound's IC50s were calculated using the nonlinear regression curve fit function of the GraphPad Prism software.
With `Cc1cc(Nc2ccc3[nH]ncc3c2)nc(N2CCC3(CCCNC3)C2)n1` (centres unmarked) [Example 124, N-(6-methyl-2-(2,7-diazaspiro[4.5]decan-2-yl)pyrimidin-4-yl)-1H-indazol-5-amine], the inhibition at 1 µM is -7.6%.

Turning to `Cc1cc(Nc2ccc3[nH]ncc3c2)nc(N2CCCC3(CCNC3)C2)n1` (centres unmarked) [Example 125, N-(6-methyl-2-(2,7-diazaspiro[4.5]decan-7-yl)pyrimidin-4-yl)-1H-indazol-5-amine], the inhibition at 1 µM was 0.7%.

Regarding `Cc1cc(Nc2ccc3[nH]ncc3c2)nc(N2CC3(CCNC3)C2)n1` [Example 126, N-(6-methyl-2-(2,6-diazaspiro[3.4]octan-2-yl)pyrimidin-4-yl)-1H-indazol-5-amine], the inhibition at 1 µM was -12.3%.

On to `Cc1cc(Nc2ccc3[nH]ncc3c2)nc(N2CC3(CCNCC3)C2)n1` [Example 127, N-(6-methyl-2-(2,7-diazaspiro[3.5]nonan-2-yl)pyrimidin-4-yl)-1H-indazol-5-amine], for which the inhibition at 1 µM was -7.2%.

On to `Cc1cc(Nc2ccc3[nH]ncc3c2)nc(N2CC3(CNC3)C2)n1` [Example 128, N-(6-methyl-2-(2,6-diazaspiro[3.3]heptan-2-yl)pyrimidin-4-yl)-1H-indazol-5-amine], for which the inhibition at 1 µM is -8.3%.

As to `Cc1cc(Nc2ccc3[nH]ncc3c2)nc(N2CCCC(C3CCCNC3)C2)n1` (centres unmarked) [Example 136, N-(2-([3,3′-bipiperidin]-1-yl)-6-methylpyrimidin-4-yl)-1H-indazol-5-amine], the inhibition at 1 µM was determined as 1.1%.

On to `Cc1cc(Nc2ccc3[nH]ncc3c2)nc(N2CC(C3CCCNC3)c3ccccc32)n1` (centres unmarked) [Example 139, N-(6-methyl-2-(3-(piperidin-3-yl)indolin-1-yl)pyrimidin-4-yl)-1H-indazol-5-amine], for which the inhibition at 1 µM was 2.2%.

In the case of `OCC1CNCCN1c1ncc(F)c(Nc2ccc3[nH]ncc3c2)n1` (centres unmarked) [Example 156, (1-(4-((1H-indazol-5-yl)amino)-5-fluoropyrimidin-2-yl)piperazin-2-yl)methanol], the inhibition at 1 µM came to 7.1%.

Consider `Fc1cnc(N2CCC3(CC2)CNC3)nc1Nc1ccc2[nH]ncc2c1` [Example 158, N-(5-fluoro-2-(2,7-diazaspiro[3.5]nonan-7-yl)pyrimidin-4-yl)-1H-indazol-5-amine], for which the inhibition at 1 µM was -1.1%.

Turning to `Fc1cnc(N2CCC3(CNC3)C2)nc1Nc1ccc2[nH]ncc2c1` [Example 159, N-(5-fluoro-2-(2,6-diazaspiro[3.4]octan-6-yl)pyrimidin-4-yl)-1H-indazol-5-amine], the inhibition at 1 µM was -12.2%.

Take `Fc1cnc(N2CCC3(CC2)CNCCO3)nc1Nc1ccc2[nH]ncc2c1` [Example 160, N-(5-fluoro-2-(1-oxa-4,9-diazaspiro[5.5]undecan-9-yl)pyrimidin-4-yl)-1H-indazol-5-amine]: the inhibition at 1 µM is 5.9%.

For the compound `Fc1cnc(N2CCC3(CCCNC3)C2)nc1Nc1ccc2[nH]ncc2c1` (centres unmarked) [Example 161, N-(5-fluoro-2-(2,7-diazaspiro[4.5]decan-2-yl)pyrimidin-4-yl)-1H-indazol-5-amine], the inhibition at 1 µM is 2.6%.

As for `Fc1cnc(N2CCCC3(CCNC3)C2)nc1Nc1ccc2[nH]ncc2c1` (centres unmarked) [Example 162, N-(5-fluoro-2-(2,7-diazaspiro[4.5]decan-7-yl)pyrimidin-4-yl)-1H-indazol-5-amine], the inhibition at 1 µM is 16.7%.

As to `Fc1cnc(N2CC3(CCNC3)C2)nc1Nc1ccc2[nH]ncc2c1` [Example 163, N-(5-fluoro-2-(2,6-diazaspiro[3.4]octan-2-yl)pyrimidin-4-yl)-1H-indazol-5-amine], the inhibition at 1 µM is -7.8%.

Consider `Fc1cnc(N2CC3(CCNCC3)C2)nc1Nc1ccc2[nH]ncc2c1` [Example 164, N-(5-fluoro-2-(2,7-diazaspiro[3.5]nonan-2-yl)pyrimidin-4-yl)-1H-indazol-5-amine], for which the inhibition at 1 µM was -8.3%.

On to `Fc1cnc(N2CC3(CNC3)C2)nc1Nc1ccc2[nH]ncc2c1` [Example 165, N-(5-fluoro-2-(2,6-diazaspiro[3.3]heptan-2-yl)pyrimidin-4-yl)-1H-indazol-5-amine], for which the inhibition at 1 µM is -10.2%.

As to `Fc1cnc(N2CCC3NCCC3C2)nc1Nc1ccc2[nH]ncc2c1` (centres unmarked) [Example 168, N-(5-fluoro-2-(octahydro-5H-pyrrolo[3,2-c]pyridin-5-yl)pyrimidin-4-yl)-1H-indazol-5-amine], the inhibition at 1 µM came to 12.2%.

For the compound `Fc1cnc(N2CCCC(C3CCCNC3)C2)nc1Nc1ccc2[nH]ncc2c1` (centres unmarked) [Example 171, N-(2-([3,3′-bipiperidin]-1-yl)-5-fluoropyrimidin-4-yl)-1H-indazol-5-amine], the inhibition at 1 µM was -9.6%.

For `Fc1cnc(N2CCC(C3CNC3)C2)nc1Nc1ccc2[nH]ncc2c1` (centres unmarked) [Example 172, N-(2-(3-(azetidin-3-yl)pyrrolidin-1-yl)-5-fluoropyrimidin-4-yl)-1H-indazol-5-amine], the inhibition at 1 µM is -9.9%.

The same experiment, now with this note: Rattus norvegicus, A7R5, A7R5 cells, 10 μM compound; read-out: pMLC % inh A7R5 @ [conc].
Turning to `Fc1cnc(N2CCCNC(c3ccccc3)C2)nc1Nc1ccc2[nH]ncc2c1` (centres unmarked) [Example 141, N-(5-fluoro-2-(3-phenyl-1,4-diazepan-1-yl)pyrimidin-4-yl)-1H-indazol-5-amine], the inhibition at 10 µM came out at 54.9%.

On to `Fc1cnc(N2CCNC(c3ccccc3)CC2)nc1Nc1ccc2[nH]ncc2c1` (centres unmarked) [Example 142, N-(5-fluoro-2-(5-phenyl-1,4-diazepan-1-yl)pyrimidin-4-yl)-1H-indazol-5-amine], for which the inhibition at 10 µM turned out to be 37.5%.

With `CC(C)C1CN(c2ncc(F)c(Nc3ccc4[nH]ncc4c3)n2)CCCN1` (centres unmarked) [Example 144, N-(5-fluoro-2-(3-isopropyl-1,4-diazepan-1-yl)pyrimidin-4-yl)-1H-indazol-5-amine], the inhibition at 10 µM is 45.6%.

`CC(C)C1CCN(c2ncc(F)c(Nc3ccc4[nH]ncc4c3)n2)CCN1` (centres unmarked) [Example 145, N-(5-fluoro-2-(5-isopropyl-1,4-diazepan-1-yl)pyrimidin-4-yl)-1H-indazol-5-amine]: the inhibition at 10 µM was found to be 42.4%.

Regarding `CC(C)C1CN(c2ncc(Cl)c(Nc3ccc4[nH]ncc4c3)n2)CCCN1` (centres unmarked) [Example 181, N-(5-chloro-2-(3-isopropyl-1,4-diazepan-1-yl)pyrimidin-4-yl)-1H-indazol-5-amine], the inhibition at 10 µM worked out at 36.5%.

On to `CC(C)C1CCN(c2ncc(Cl)c(Nc3ccc4[nH]ncc4c3)n2)CCN1` (centres unmarked) [Example 182, N-(5-chloro-2-(5-isopropyl-1,4-diazepan-1-yl)pyrimidin-4-yl)-1H-indazol-5-amine], for which the inhibition at 10 µM was 30.2%.

For the compound `Clc1cnc(N2CCCNC(c3ccccc3)C2)nc1Nc1ccc2[nH]ncc2c1` (centres unmarked) [Example 183, N-(5-chloro-2-(3-phenyl-1,4-diazepan-1-yl)pyrimidin-4-yl)-1H-indazol-5-amine], the inhibition at 10 µM was 43.1%.

Take `Clc1cnc(N2CCNC(c3ccccc3)CC2)nc1Nc1ccc2[nH]ncc2c1` (centres unmarked) [Example 184, N-(5-chloro-2-(5-phenyl-1,4-diazepan-1-yl)pyrimidin-4-yl)-1H-indazol-5-amine]: the inhibition at 10 µM is 34.1%.

For `c1ccc(C2CN(c3nccc(Nc4ccc5[nH]ncc5c4)n3)CCN2)cc1` (centres unmarked) [Example 224, N-(2-(3-phenylpiperazin-1-yl)pyrimidin-4-yl)-1H-indazol-5-amine], the inhibition at 10 µM turned out to be 48%.

With `CC1CN(c2nccc(Nc3ccc4[nH]ncc4c3)n2)CC(C)N1` (centres unmarked) [Example 226, N-(2-(3,5-dimethylpiperazin-1-yl)pyrimidin-4-yl)-1H-indazol-5-amine], the inhibition at 10 µM amounted to 67.7%.

As for `CC1(C)CN(c2nccc(Nc3ccc4[nH]ncc4c3)n2)CCN1` [Example 227, N-(2-(3,3-dimethylpiperazin-1-yl)pyrimidin-4-yl)-1H-indazol-5-amine], the inhibition at 10 µM worked out at 83.4%.

Take `OCC1CNCCN1c1nccc(Nc2ccc3[nH]ncc3c2)n1` (centres unmarked) [Example 230, (1-(4-((1H-indazol-5-yl)amino)pyrimidin-2-yl)piperazin-2-yl)methanol]: the inhibition at 10 µM was 16.1%.

`c1ccc(CC2CCNCCN2c2nc3c(c(Nc4ccc5[nH]ncc5c4)n2)COC3)cc1` (centres unmarked) [Example 236, 2-(7-benzyl-1,4-diazepan-1-yl)-N-(1H-indazol-5-yl)-5,7-dihydrofuro[3,4-d]pyrimidin-4-amine]: the inhibition at 10 µM turned out to be 80.8%.

For the compound `CC1CN(c2nccc(Nc3ccc(-c4cn[nH]c4)cc3)n2)CCN1` (centres unmarked) [Example 252, N-(4-(1H-pyrazol-4-yl)phenyl)-2-(3-methylpiperazin-1-yl)pyrimidin-4-amine], the inhibition at 10 µM came out at 65%.

Turning to `CC1CNCCN1c1nccc(Nc2ccc(-c3cn[nH]c3)cc2)n1` (centres unmarked) [Example 253, N-(4-(1H-pyrazol-4-yl)phenyl)-2-(2-methylpiperazin-1-yl)pyrimidin-4-amine], the inhibition at 10 µM amounted to 41.5%.

The experiment is the same for the next values; noted with them: Rattus norvegicus, A7R5, A7R5 cells, ppMlc (T18/S19).
Consider `Fc1cnc(N2CCCNC(c3ccccc3)C2)nc1Nc1ccc2[nH]ncc2c1` (centres unmarked) [Example 141, N-(5-fluoro-2-(3-phenyl-1,4-diazepan-1-yl)pyrimidin-4-yl)-1H-indazol-5-amine], for which the IC50 amounted to 2890 nM.

`c1ccc(C2CN(c3nccc(Nc4ccc5[nH]ncc5c4)n3)CCN2)cc1` (centres unmarked) [Example 224, N-(2-(3-phenylpiperazin-1-yl)pyrimidin-4-yl)-1H-indazol-5-amine]: the IC50 was 3350 nM.

With `c1ccc(CC2CCNCCN2c2nc3c(c(Nc4ccc5[nH]ncc5c4)n2)COC3)cc1` (centres unmarked) [Example 236, 2-(7-benzyl-1,4-diazepan-1-yl)-N-(1H-indazol-5-yl)-5,7-dihydrofuro[3,4-d]pyrimidin-4-amine], the IC50 is 4690 nM.

Turning to `CC1CN(c2nccc(Nc3ccc(-c4cn[nH]c4)cc3)n2)CCN1` (centres unmarked) [Example 252, N-(4-(1H-pyrazol-4-yl)phenyl)-2-(3-methylpiperazin-1-yl)pyrimidin-4-amine], the IC50 amounted to 1170 nM.
